The conditions of data set [1]: cited from earlier work.
Data set [2] concerns Pseudomonas putida (Strain KT2440; BCRC 10459). The data set can be described thus: disc inhibition assay, REF 4. Format: cell-based. Here is the method:
(§1) 13 strains of marine bacteria were isolated from fouling communities located in the coastal waters around Singapore. These were characterized in earlier studies and reported in Teo et al. (U.S. patent application Ser. No. 11/265,833) and Choong et al (in prep). In addition, four reference bacterial strains were added tested: Escherichia coli (Strain K12, ATCC 15222), E. coli (strain DH5a), Pseudomonas aeruginosa (strain LMG 12228; ATCC 15692) and P. putida (strain KT2440; ATCC 47054). All the bacteria were also tested against five antibiotics: ampicillin (AMP), tetracycline (TETR), erythromycin (ERY), chloramphenicol (CHL) and streptomycin (STREP).
(§2) Disks comprising the compounds to be tested were prepared as follows. The antibacterial assay, the pure compounds were made up to a concentration of 2 mgml^−1 in DMSO. 25 μl of the stock was pipetted onto each 6 mm sterile disc (Macherey-Nagel #484000) to obtain 50 μg of compound per disc. Equivalent volume of DMSO was used inoculated for the control.
(§3) For all disk inhibition assays, bacterial cultures were grown in marine broth (Pronadisa #1217.00). Sterile swabs dipped into the cultures were used to inoculate Marine Agar plates with a bacterial lawn by smearing the culture over the surface. After inoculating the plates, discs with antibiotics, pharmaceuticals or control blanks were placed on each plate. Each concentration of antibiotic or pharmaceutical was tested with two replicates. After the disks were placed on the agar surface, plates were incubated overnight in the dark at 35° C. After incubation, plates were examined for zones of inhibition or clearing around control and treated disks. The diameter of any zone of clearing or inhibition was measured using Vernier calipers. There were two replicates per treatment, and the average was taken. There was no zone of inhibition around the control blanks in all the assays.

The test system of data set [3] is marine bacteria strain S3. The data set can be described thus: disc inhibition assay, strain S3. Format: cell-based, Erythrobacter aquimaris. In a few lines:
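Antibacterial susceptibility was measured by agar disc diffusion. Compounds dissolved in DMSO were applied to 6 mm sterile discs and laid on Marine Agar lawns of a Singapore coastal marine bacterium cultured in marine broth. After overnight dark incubation at 35° C, clearing zone diameters were measured with Vernier calipers, and the two replicates were averaged.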

Data set [4] concerns marine bacteria strain S30. The data set can be described thus: disc inhibition assay, strain S30. The data set is classed as cell-based, Bacillus borophilicus. Particulars: Bacillus, S30, 24 h. In a few lines: (§4)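 50 μg compound/6 mm disc (from 2 mg/ml DMSO stock); DMSO blank disc control. Lawn swabbed on Marine Agar from marine broth culture. Overnight, 35° C, dark. Readout: inhibition zone diameter (calipers), mean of 2 replicates.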

Data set [5] deals with marine bacteria strain S10. As to the kind of experiment: disc inhibition assay, strain S10. Format: cell-based, Halobacillus trueperi. Particulars: Halobacillus trueperi, S10, 24 h. In short, it runs like this:
as §4

Data set [6] has as its system marine bacteria strain S4. As to the kind of experiment: disc inhibition assay, strain S4. Format: cell-based, Bacillus algicola. Particulars: Guptibacillus algicola, S4, 24 h. In a few lines: as §4
The test system of data set [7] is marine bacteria strain S16. As to the kind of experiment: disc inhibition assay, strain S16. The data set is classed as cell-based, Pseudoalteromonas piscicida. In a few lines: as §4
For data set [8], the system named is marine bacteria strain S27. The data set can be described thus: disc inhibition assay, strain S27. Format: cell-based, Tenacibaculum lutimaris. In short, it runs like this:
as §4

For data set [9], the system named is Escherichia coli (Strain K12; ATCC 15222). The data set can be described thus: disc inhibition assay, REF 1. Format: cell-based. How it is done: as §1, §2, §3
For data set [10], the system named is marine bacteria strain S29. As to the kind of experiment: disc inhibition assay, strain S29. The data set is classed as cell-based, Bacillus hwajinpoensis. Particulars: Guptibacillus hwajinpoensis, S29, 24 h. In a few lines: as §4
The test system of data set [11] is marine bacteria strain S17. As to the kind of experiment: disc inhibition assay, strain S17. The data set is classed as cell-based, Gordonia terrae. In a few lines: as §4
Data set [12] has as its system marine bacteria strain S14. As to the kind of experiment: disc inhibition assay, strain S14. The data set is classed as cell-based, Vibrio probioticus.
Data set [13] concerns Pseudomonas aeruginosa (strain LMG 12228; ATCC 15692). The data set can be described thus: disc inhibition assay, REF 3. The data set is classed as cell-based. How it is done: as §1, §2, §3
For data set [14], the system named is Escherichia coli (Strain DH5a). The data set can be described thus: disc inhibition assay, REF 2. Format: cell-based. How it is done: as §1, §2, §3
The test system of data set [15] is marine bacteria strain S28. As to the kind of experiment: disc inhibition assay, strain S28. Format: cell-based, Arthrobacter protophormial. In short, it runs like this:
as §4

Data set [16] deals with marine bacteria strain S9. As to the kind of experiment: disc inhibition assay, strain S9. Particulars: Guptibacillus algicola, S9, 24 h. Format: cell-based, Bacillus algicola. In short, it runs like this:
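Compounds were dissolved at 2 mg/ml in DMSO (stock) and 50 μg loaded per 6 mm disc, with DMSO-only discs as control. Discs went onto Marine Agar lawns swabbed from marine broth cultures, plates were incubated overnight in the dark at 35° C, and clearing-zone diameter was measured by calipers, averaged over two replicates.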

The test system of data set [17] is marine bacteria strain S18. The data set can be described thus: disc inhibition assay, strain S18. The data set is classed as cell-based, Microbacterium esteraromaticum.
Data set [18] concerns marine bacteria strain S1. The data set can be described thus: disc inhibition assay, strain S1. The data set is classed as cell-based, Rhodovulum iodosum. In a few lines: as §4

Structures are written as SMILES. Counter-ions that a name gives are not always drawn.

Here are results for 2 compounds from patent publication US20160311788A1, “Antifouling Compounds And Use Thereof” (National University of Singapore, priority 2008, published 2016).

By zone of inhibition is commonly meant the extent of the growth-free halo in a diffusion test. The low end stands for a weaker effect on the plate, the high end for a stronger effect on the plate.

As to `CN(C)C(=O)C(CCN1CCC(O)(c2ccc(Cl)cc2)CC1)(c1ccccc1)c1ccccc1` [Loperamide hydrochloride], the solubility in water entry in data set [1] is “slightly soluble”.

`CN(C)[C@@H]1C(O)=C(C(N)=O)C(=O)[C@@]2(O)C(O)=C3C(=O)c4c(O)cccc4[C@@](C)(O)[C@H]3C[C@@H]12` [TETR, Tetracycline, reference compound]: the zone of inhibition result in [2] (REF 4, 5 ug) is given as “++ (5-10 mm zone was observed.)”; in data set [2] (REF 4, 30 ug), “++ (5-10 mm zone was observed.)”; in [3] (strain 3, 5 ug) it was “−”; in [3] (strain 3, 30 ug), “−”; in data set [7] (strain 16, 5 ug), “−”; in data set [7] (strain 16, 30 ug) it was “−”. Moreover, the zone of inhibition entry in data set [8] (strain 27, 5 ug) is recorded as “−”; in [9] (REF 1, 5 ug) it was “+ (2-5 mm zone of inhibition around each disk was observed.)”; in data set [9] (REF 1, 30 ug), “++ (5-10 mm zone was observed.)”; in [11] (strain 17, 5 ug), “−”; in data set [11] (strain 17, 30 ug), “−”; in data set [12] (strain 14, 5 ug), “−”. Further, the zone of inhibition entry is “+ (2-5 mm zone of inhibition around each disk was observed.)” in data set [13] (REF 3, 5 ug); “++ (5-10 mm zone was observed.)” in data set [13] (REF 3, 30 ug); “+ (2-5 mm zone of inhibition around each disk was observed.)” in data set [14] (REF 2, 5 ug); “++ (5-10 mm zone was observed.)” in data set [14] (REF 2, 30 ug); “−” in data set [15] (strain 28, 5 ug); “−” in data set [17] (strain 18, 5 ug). In addition, the zone of inhibition result in data set [18] (strain 1, 5 ug) is “−”; in data set [18] (strain 1, 30 ug), “−”. The zone of inhibition at 5 µg/disc lay in the range of 2 to 5 mm in data set [4] (strain 30, 5 ug); 2 to 5 mm in [5] (strain 10, 5 ug); 2 to 5 mm in data set [6] (strain 4, 5 ug); 2 to 5 mm in data set [10] (strain 29, 5 ug); 2 to 5 mm in [16] (strain 9, 5 ug). Further, the zone of inhibition at 30 µg/disc lay within 2 to 5 mm in data set [4] (strain 30, 30 ug); 2 to 5 mm in data set [5] (strain 10, 30 ug); 5 to 10 mm in data set [6] (strain 4, 30 ug); 2 to 5 mm in data set [8] (Tenacibaculum lutimaris, S27, 24 h, strain 27, 30 ug); 5 to 10 mm in data set [10] (strain 29, 30 ug); 2 to 5 mm in [12] (Vibrio, S14, 24 h). The zone of inhibition at 30 µg/disc in data set [15] (Arthrobacter, S28, 24 h, strain 28, 30 ug) is 2 to 5 mm; in [16] (strain 9, 30 ug) it was 5 to 10 mm; in data set [17] (Microbacterium esteraromaticum, S18, 24 h, strain 18, 30 ug), 2 to 5 mm.
